From patent US8591943B2, “Pyrazolo[1,5-a]pyrimidine derivatives as mTOR inhibitors” (Merck Sharp & Dohme Corp., priority 2009, dated 2013)
Where two headings read alike, the source gives them in different places.

Key:
mTOR enzyme = mTOR enzyme (Homo sapiens, UniProt P42345); assay: mTOR Kinase Assay; type: biochemical
Protocol: The mTOR assay buffer contains 10 mM hepes (pH 7.4), 50 mM NaCl, 100 μg/ml BSA, 50 mM B-glycerophosphate, 10 mM MnCl2 and 0.5 mM DTT. 20 ng of mTOR enzyme is preincubated with the compound for 10 minutes. 5 μM ATP and 0.1 μM GSTS6K is added. The reaction is incubated for one hour at 30° C. Anti phospho p70S6K (about 1.7 ng/well) and anti GSTXL665 (1:1 Ratio with the substrate GSTS6K) are added after incubating. The plates are read at least 2 hours after adding the anti phospho p70S6K and the anti GSTXL665.

Cyclin E/CDK2 = biological target: T1, Cyclin E/CDK2 (Homo sapiens, UniProt P24941); assay: In Vitro Cyclin E/CDK2 Kinase Assay; type: biochemical
T1 construct: made in house; host or cells: SF9 cells, baculovirus co-infection
Text: Cyclin E was cloned into pVL1393 (Pharmingen, La Jolla, Calif.) by PCR, with the addition of 5 histidine residues at the amino-terminal end to allow purification on nickel resin. The expressed protein was approximately 45 kDa. CDK2 was cloned into pVL1393 by PCR, with the addition of a haemaglutinin epitope tag at the carboxy-terminal end (YDVPDYAS). The expressed protein was approximately 34 kDa in size.
Recombinant baculoviruses expressing cyclin E and CDK2 were co-infected into SF9 cells at an equal multiplicity of infection (MOI=5), for 48 hrs. Cells were harvested by centrifugation at 1000 RPM for 10 minutes, then pellets lysed on ice for 30 minutes in five times the pellet volume of lysis buffer containing 50 mM Tris pH 8.0, 150 mM NaCl, 1% NP40, 1 mM DTT and protease inhibitors (Roche Diagnostics GmbH, Mannheim, Germany). Lysates were spun down at 15000 RPM for 10 minutes and the supernatant retained. 5 mL of nickel beads (for one liter of SF9 cells) were washed three times in lysis buffer (Qiagen GmbH, Germany). Imidazole was added to the baculovirus supernatant to a final concentration of 20 mM, then incubated with the nickel beads for 45 minutes at 4° C. Proteins were eluted with lysis buffer containing 250 mM imidazole. Eluate was dialyzed about 15 hours in 2 liters of kinase buffer containing 50 mM Tris pH 8.0, 1 mM DTT, 10 mM MgCl2, 100 μM sodium orthovanadate and 20% glycerol. Enzyme was stored in aliquots at −70° C.
Cyclin E/CDK2 kinase assays can be performed as described below in low protein binding 96-well plates (Corning Inc, Corning, N.Y.).
The substrate used in these reactions is a biotinylated peptide derived from Histone H1 (from Amersham, UK). The substrate is thawed on ice and diluted to 2 μM in kinase buffer. Test compounds are diluted in 10% DMSO to desirable concentrations. For each kinase reaction, 20 μL of the 50 μg/mL enzyme solution (1 μg of enzyme) and 20 μl of the 2 μM substrate solution are mixed, then combined with 10 μL of diluted compound in each well for testing. The kinase reaction is initiated by addition of 50 μL of 2 μM ATP and 0.1 μCi of ^33P-ATP (from Amersham, UK). The reaction is allowed to run for 1 hour at room temperature, then is stopped by adding 200 μL of stop buffer containing 0.1% Triton X-100, 1 mM ATP, 5 mM EDTA, and 5 mg/mL streptavidine coated SPA beads (from Amersham, UK) for 15 minutes. The SPA beads are then captured onto a 96-well GFIB filter plate (Packard/Perkin Elmer Life Sciences) using a Filtermate universal harvester (Packard/Perkin Elmer Life Sciences.). Non-specific signals are eliminated by washing the beads twice with 2M NaCl then twice with 2 M NaCl with 1% phosphoric acid. The radioactive signal can then be measured using, for example, a TopCount 96 well liquid scintillation counter (from Packard/Perkin Elmer Life Sciences).

recombinant His-CHK1 = biological target: T2, recombinant His-CHK1 (Homo sapiens, UniProt O14757); assay: CHK1 In Vitro Kinase Assay
T2 sequence (O14757 1-265 limits assumed): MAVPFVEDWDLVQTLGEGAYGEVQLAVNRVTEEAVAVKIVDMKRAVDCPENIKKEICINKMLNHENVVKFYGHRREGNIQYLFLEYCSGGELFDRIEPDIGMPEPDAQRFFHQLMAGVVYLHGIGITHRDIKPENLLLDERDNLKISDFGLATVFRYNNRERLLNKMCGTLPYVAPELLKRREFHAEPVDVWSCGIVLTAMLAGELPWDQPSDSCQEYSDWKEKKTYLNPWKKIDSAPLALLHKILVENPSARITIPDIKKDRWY

| IC50 (mTOR enzyme) | Compound | IC50 (mTOR enzyme; rated A-F) | IC50 (Cyclin E/CDK2; rated A-F) | IC50 (recombinant His-CHK1) | IC50 (Cyclin E/CDK2) |
| --- | --- | --- | --- | --- | --- |
|  | COC(=O)[C@@H]1CC[C@H](c2nc3c(-c4cnc5ccccc5c4)cnn3c(N)c2Br)CN1 (stereo in doubt) [Compound 2.6] | < 0.1 µM | > 5 µM | 1 to 5 µM |  |
|  | Nc1c(Br)c(N2CCS(=O)(=O)CC2)nc2c(-c3cnc4ccccc4c3)cnn12 [Compound 10.31] | < 0.1 µM | > 5 µM | > 5 µM |  |
|  | Nc1c(Br)c(C2CCC(CC(=O)O)CC2)nc2c(-c3cnc4ccccc4c3)cnn12 (single isomer, unassigned) [Compound 5.4, 2-(4-(7-amino-6-bromo-3-(quinolin-3-yl)pyrazolo[1,5-a]pyrimidin-5-yl)cyclohexyl)acetic acid] | < 0.1 µM | > 5 µM | > 5 µM |  |
|  | CS(=O)(=O)N1CCC(c2nc3c(-c4cnc5ccccc5c4)cnn3c(N)c2Br)CC1 [Compound 8.18] | < 0.1 µM | 1 to 5 µM | > 5 µM |  |
|  | COC(=O)c1ccc(-c2cc(N)n3ncc(-c4cnc5ccccc5c4)c3n2)cn1 [Compound 11.3] | 1 to 5 µM | > 5 µM | > 5 µM |  |
|  | CC(=O)c1c(N2CCS(=O)(=O)CC2)nc2c(-c3cnc4ccccc4c3)cnn2c1N [Compound 10.62] | < 0.1 µM | > 5 µM | > 5 µM |  |
|  | COC(=O)C1CCC(c2nc3c(-c4cnn(C)c4)cnn3c(N)c2Br)CN1 (stereo not shown) [Compound 2.4] | < 0.1 µM | > 5 µM | 0.101 to 0.2 µM |  |
|  | Nc1c(Br)c(N2CCC[S+]([O-])CC2)nc2c(-c3cnc4ccccc4c3)cnn12 (stereo not shown) [Compound 10.63] | < 0.1 µM | > 5 µM | > 5 µM |  |
|  | Nc1c(Br)c(N2CCN3C(=O)CCC3C2)nc2c(-c3cnc4ccccc4c3)cnn12 (stereo not shown) [Compound 10.26] | < 0.1 µM | > 5 µM | > 5 µM |  |
|  | Nc1c(Br)c(C2CCC(C(=O)O)NC2)nc2c(-c3cnc4ccccc4c3)cnn12 (stereo not shown) [Compound 2.2, 5-(7-amino-6-bromo-3-(quinolin-3-yl)pyrazolo[1,5-a]pyrimidin-5-yl)piperidine-2-carboxylic acid] | < 0.1 µM | > 5 µM | > 5 µM |  |
| 0.0124 µM | Nc1cc(C2CCC(C(=O)O)NC2)nc2c(-c3cnc4ccccc4c3)cnn12 (stereo not shown) [Compound 1.1, 5-(7-amino-3-(quinolin-3-yl)pyrazolo[1,5-a]pyrimidin-5-yl)piperidine-2-carboxylic acid] |  |  |  |  |
| 0.146 µM | Cn1cc(-c2cnn3c(N)cc(C4CCC(C(=O)O)NC4)nc23)cn1 (stereo not shown) [Compound 1.2] |  |  |  |  |
|  | Nc1c(Br)c(N2CCN3C(=O)NC(=O)C3C2)nc2c(-c3cnc4ccccc4c3)cnn12 (stereo not shown) [Compound 10.60] | < 0.1 µM | > 5 µM | > 5 µM |  |
|  | CS(=O)(=O)N1CCC(c2nc3c(-c4cnc5ccccc5c4)cnn3c(N)c2Br)C1 (stereo not shown) [Compound 8.1] | < 0.1 µM | > 5 µM | > 5 µM |  |
|  | CN(C)C(=O)C1CCC(c2cc(N)n3ncc(-c4cnn(C)c4)c3n2)CN1 (stereo not shown) [Compound 2.9] | 1 to 5 µM |  | > 5 µM |  |
|  | CS(=O)(=O)N1CCC(c2cc(N)n3ncc(-c4cnc5ccccc5c4)c3n2)C1 (stereo not shown) [Compound 8.17] | < 0.1 µM | > 5 µM | > 5 µM |  |
|  | COC(=O)C1CCC(c2cc(N)n3ncc(-c4cnn(C)c4)c3n2)CN1 (stereo not shown) [Compound 2.8] | 0.501 to 1 µM | > 5 µM | 1 to 5 µM |  |

| IC50 (mTOR enzyme) | Compound | IC50 (mTOR enzyme; rated A-F) | IC50 (Cyclin E/CDK2; rated A-F) | IC50 (recombinant His-CHK1) | IC50 (Cyclin E/CDK2) |
| --- | --- | --- | --- | --- | --- |
|  | Nc1c(Br)c([C@H]2CC[C@H](C(=O)O)CC2)nc2c(-c3ccc(-c4ccncc4)nc3)cnn12 [Compound 4.12] | < 0.1 µM | > 5 µM | > 5 µM |  |
| 0.0014 µM | N#Cc1c(C2CCC(CC(=O)O)CC2)nc2c(-c3cnc4ccccc4c3)cnn2c1N (stereo not shown) [Compound 6.6, [4-(7-Amino-6-cyano-3-quinolin-3-yl-pyrazolo[1,5-a]pyrimidin-5-yl)-cyclohexyl]-acetic acid] |  |  |  |  |
|  | Nc1c(Cl)c(N2CCN3C(=O)NC(=O)C3C2)nc2c(-c3cnc4ccccc4c3)cnn12 (stereo not shown) [Compound 10.61] | < 0.1 µM | > 5 µM | > 5 µM |  |
|  | Nc1c(Br)c([C@H]2CC[C@H](C(=O)O)CC2)nc2c(-c3ccc(-c4cccnc4)nc3)cnn12 [Compound 4.11] | < 0.1 µM | > 5 µM | > 5 µM |  |
|  | Nc1cc(CN2CCN3C(=O)NC(=O)C3C2)nc2c(-c3cnc4ccccc4c3)cnn12 (stereo not shown) [Compound 13.3] | 0.201 to 0.5 µM | > 5 µM | > 5 µM |  |
|  | CC(=O)N1CCC(c2nc3c(-c4cnc5ccccc5c4)cnn3c(N)c2Br)C1 (stereo not shown) [Compound 8.7] | < 0.1 µM |  | > 5 µM |  |
|  | Nc1c(Br)c(C2CCC3(CC2)OCCO3)nc2c(-c3cnc4ccccc4c3)cnn12 [Compound 6.7] | < 0.1 µM |  | > 5 µM |  |
|  | COC(=O)C1CCC(c2nc3c(-c4cnc5ccccc5c4)cnn3c(N)c2Br)CN1 (stereo not shown) [Compound 2.3, Methyl 5-(7-amino-6-bromo-3-(quinolin-3-yl)pyrazolo[1,5-a]pyrimidin-5-yl)piperidine-2-carboxylate] | < 0.1 µM | > 5 µM | 1 to 5 µM |  |
|  | Nc1c(Br)c(CN2CCN3C(=O)NC(=O)C3C2)nc2c(-c3cnc4ccccc4c3)cnn12 (stereo not shown) [Compound 13.4] | < 0.1 µM | > 5 µM | > 5 µM |  |
|  | CS(=O)(=O)NC(=O)C[C@H]1CC[C@@H](c2nc3c(-c4cnc5ccccc5c4)cnn3c(N)c2Br)CC1 [Compound 7.2, 2-(4-(7-amino-6-bromo-3-(quinolin-3-yl)pyrazolo[1,5-a]pyrimidin-5-yl)cyclohexyl)-N-(methylsulfonyl)acetamide] | < 0.1 µM | > 5 µM | > 5 µM |  |
|  | N#CCC1CCC(c2nc3c(-c4cnc5ccccc5c4)cnn3c(N)c2Br)CC1 (stereo not shown) [Compound 5.2] | < 0.1 µM | > 5 µM | > 5 µM |  |
|  | Nc1c(Br)c(N2CCN3C(=O)NC(=O)CC3C2)nc2c(-c3cnc4ccccc4c3)cnn12 (stereo not shown) [Compound 10.5] | < 0.1 µM | 0.501 to 1 µM | > 5 µM |  |
|  | Nc1cc(C2CCC(C(=O)O)NC2)nc2c(-c3cn[nH]c3)cnn12 (stereo not shown) [Compound 1.5] | < 0.1 µM | > 5 µM | > 5 µM |  |
|  | Nc1c(Br)c(N2CCc3[nH]cnc3C2)nc2c(-c3cnc4ccccc4c3)cnn12 [Compound 10.19] | < 0.1 µM | > 5 µM | > 5 µM |  |
|  | Nc1c(Br)c(CN2CCOCC2)nc2c(-c3cnc4ccccc4c3)cnn12 [Compound 13.2, 6-bromo-5-(morpholinomethyl)-3-(quinolin-3-yl)pyrazolo[1,5-a]pyrimidin-7-amine] | < 0.1 µM | > 5 µM | > 5 µM |  |
|  | Nc1c(Br)c(CNC2CCOCC2)nc2c(-c3cnc4ccccc4c3)cnn12 [Compound 13.16] | < 0.1 µM | > 5 µM | > 5 µM |  |
| 0.0148 µM | Nc1c(Br)c(-c2ccc(CC(=O)O)cc2)nc2c(-c3cnc4ccccc4c3)cnn12 [Compound 11.1, [4-(7-Amino-6-bromo-3-quinolin-3-yl-pyrazolo[1,5-a]pyrimidin-5-yl)-phenyl]-acetic acid] |  |  |  |  |

| Compound | IC50 (mTOR enzyme) | IC50 (mTOR enzyme; rated A-F) | IC50 (Cyclin E/CDK2; rated A-F) | IC50 (recombinant His-CHK1) | IC50 (Cyclin E/CDK2) |
| --- | --- | --- | --- | --- | --- |
| Nc1c(Br)c(N2CCC(CC(=O)O)CC2)nc2c(-c3cnc4ccccc4c3)cnn12 [Compound 10.47] | 0.0113 µM |  |  | 22 µM | 10 µM |
